What all share (format): cell-based
One experiment has as its system HIV-1NL4-3 Wild Type. The experiment is described as follows: Luminescence reduction assay, MT4 cells infected with HIV-1NL4-3 luciferase reporter virus, wild type. The settings on record: Human immunodeficiency virus 1, MT4, MT4 cells, 2% FCS. The essentials: (§1)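 Compound dilution series in 1% DMSO, with 2% or 10% FCS, incubated 5 days at 37° C/5% CO2 with MT4 cells previously pellet-infected (2 h) by luciferase reporter NL4-3 virus, wild type or carrying RT resistance mutations. EC50 taken where luminescence from secreted luciferase falls to 50% of untreated infected control.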
In general terms: A reporter such as luciferase makes a cellular process visible.

Another experiment concerns HIV-1NL4-3 K103N-Y181C. The experiment in a line: Luminescence reduction assay, MT4 cells infected with HIV-1NL4-3 luciferase reporter virus, RT mutant K103N-Y181C. The settings on record: Human immunodeficiency virus 1, MT4, read-out: EC50 (μM) MT4 Cells HIV-1NL4-3 K103N-Y181C 2% FCS, MT4 cells, HIV-1NL4-3 K103N-Y181C, 2% FCS. The method, boiled down: as §1
For a further experiment, the system named is HIV-1LAI Wild Type. The experiment in a line: AlamarBlue viability assay, HIV-1LAI-infected MT4 cells. Conditions: Human immunodeficiency virus 1, MT4, MT4 cells, 10% FCS. The essentials:
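MT4 cells infected with HIV-1LAI (MOI 0.01, supernatant infection) cultured 5 days at 37 °C with compounds in RPMI with 2% or 10% FCS, 1% DMSO final. AlamarBlue fluorescence after 3 h; EC50 as 50% protection relative to uninfected cells, CC50 from high-concentration cytotoxicity.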
Background: The colour change of resazurin is a common sign of viable cells or microbes.

On to `O=C1CN(C(=O)c2cc(-c3cc(Br)cc(OC(F)(F)F)c3)n(-c3cccnc3)n2)CCN1` [Example 29, 4-({5-[3-Bromo-5-(trifluoromethoxy)phenyl]-1-(pyridin-3-yl)-1H-pyrazol-3-yl}carbonyl)piperazin-2-one], for which the EC50 (as a rule, the midpoint of the concentration-response curve) worked out at 0.012 µM in the experiment with HIV-1NL4-3 Wild Type, 0.032 µM in the experiment with HIV-1NL4-3 K103N-Y181C and 0.097 µM with HIV-1LAI Wild Type.

On to `O=C(c1cc(-c2cc(Br)cc(OC(F)(F)F)c2)n(-c2cccnc2)n1)N1CCSC1` [Example 30, (5-[3-Bromo-5-(trifluoromethoxy)phenyl]-1-(pyridin-3-yl)-1H-pyrazol-3-yl) (1,3-thiazolidin-3-yl)methanone], for which the figures for the EC50 in the experiment on HIV-1NL4-3 Wild Type, in the experiment with HIV-1NL4-3 K103N-Y181C and in the experiment on HIV-1LAI Wild Type were 0.033 µM, 0.181 µM and 0.794 µM, respectively.

As to `O=C(c1cc(-c2cc(Br)cc(OC(F)(F)F)c2)n(-c2cccnc2)n1)N1CCS(=O)(=O)C1` [Example 32, {5-[3-Bromo-5-(trifluoromethoxy)phenyl]-1-(pyridin-3-yl)-1H-pyrazol-3-yl}(1,1-dioxido-1,3-thiazolidin-3-yl)methanone], the concentration giving a half-maximal response (EC50) with HIV-1NL4-3 Wild Type is 0.007 µM; with HIV-1NL4-3 K103N-Y181C, 0.014 µM; with HIV-1LAI Wild Type, 0.083 µM.

Consider `O=C(c1cc(-c2cc(Br)cc(OC(F)(F)F)c2)n(-c2ccc[n+]([O-])c2)n1)N1CCS(=O)(=O)C1` [Example 33, {5-[3-Bromo-5-(trifluoromethoxy)phenyl]-1-(1-oxidopyridin-3-yl)-1H-pyrazol-3-yl}(1,1-dioxido-1,3-thiazolidin-3-yl)methanone], for which the EC50 came to 0.069 µM with HIV-1NL4-3 Wild Type, 0.299 µM in the experiment with HIV-1NL4-3 K103N-Y181C and 1.02 µM in the experiment on HIV-1LAI Wild Type.

Turning to `O=C1CN(C(=O)c2cc(-c3cc(Br)cc(OC(F)(F)F)c3)n(-c3ccc(Cl)nc3)n2)CN1` [Example 34, 1-({5-[3-Bromo-5-(trifluoromethoxy)phenyl]-1-(6-chloropyridin-3-yl)-1H-pyrazol-3-yl}carbonyl)imidazolidin-4-one], the EC50 in the experiment with HIV-1NL4-3 Wild Type came out at 0.01 µM; with HIV-1NL4-3 K103N-Y181C, 0.003 µM; in the experiment on HIV-1LAI Wild Type, 0.098 µM.

As to `O=C1CN(C(=O)c2cc(-c3cc(Br)cc(OC(F)(F)F)c3)n(-c3ccc(Cl)nc3)n2)CCN1` [Example 35, 4-({5-[3-Bromo-5-(trifluoromethoxy)phenyl]-1-(6-chloropyridin-3-yl)-1H-pyrazol-3-yl}carbonyl)piperazin-2-one], the results for the half-maximal effective concentration (EC50) in the experiment with HIV-1NL4-3 Wild Type, in the experiment with HIV-1NL4-3 K103N-Y181C and in the experiment on HIV-1LAI Wild Type were 0.042 µM, 0.01 µM and 0.232 µM, respectively.

As for `O=C(c1cc(-c2cc(Br)cc(OC(F)(F)F)c2)n(-c2ccc(Cl)nc2)n1)N1CCSC1` [Example 36, {5-[3-Bromo-5-(trifluoromethoxy)phenyl]-1-(6-chloropyridin-3-yl)-1H-pyrazol-3-yl}(1,3-thiazolidin-3-yl)methanone], the values for the EC50 in the experiment with HIV-1NL4-3 Wild Type, in the experiment on HIV-1NL4-3 K103N-Y181C and with HIV-1LAI Wild Type were 0.149 µM, 0.08 µM and 2.37 µM, respectively.

Turning to `O=C(c1cc(-c2cc(Br)cc(OC(F)(F)F)c2)n(-c2ccc(Cl)nc2)n1)N1CCS(=O)(=O)C1` [Example 38, {5-[3-Bromo-5-(trifluoromethoxy)phenyl]-1-(6-chloropyridin-3-yl)-1H-pyrazol-3-yl}(1,1-dioxido-1,3-thiazolidin-3-yl)methanone], the EC50 with HIV-1NL4-3 Wild Type is 0.023 µM; in the experiment on HIV-1NL4-3 K103N-Y181C it was 0.007 µM; in the experiment with HIV-1LAI Wild Type it was 1.22 µM.

With `O=C1CN(C(=O)c2cc(-c3cc(Br)cc(OC(F)(F)F)c3)n(-c3ccc(F)nc3)n2)CN1` [Example 39, 1-({5-[3-Bromo-5-(trifluoromethoxy)phenyl]-1-(6-fluoropyridin-3-yl)-1H-pyrazol-3-yl}carbonyl)imidazolidin-4-one], the EC50 with HIV-1NL4-3 Wild Type amounted to 0.009 µM; in the experiment on HIV-1NL4-3 K103N-Y181C, 0.007 µM; in the experiment on HIV-1LAI Wild Type, 0.062 µM.

Consider `O=C1CN(C(=O)c2cc(-c3cc(Br)cc(OC(F)(F)F)c3)n(-c3ccc(F)nc3)n2)CCN1` [Example 40, 4-({5-[3-Bromo-5-(trifluoromethoxy)phenyl]-1-(6-fluoropyridin-3-yl)-1H-pyrazol-3-yl}carbonyl)piperazin-2-one], for which the concentration giving a half-maximal response (EC50) with HIV-1NL4-3 Wild Type came to 0.013 µM; in the experiment on HIV-1NL4-3 K103N-Y181C, 0.044 µM; with HIV-1LAI Wild Type, 0.213 µM.

`O=C(c1cc(-c2cc(Br)cc(OC(F)(F)F)c2)n(-c2ccc(F)nc2)n1)N1CCSC1` [Example 41, {5-[3-Bromo-5-(trifluoromethoxy)phenyl]-1-(6-fluoropyridin-3-yl)-1H-pyrazol-3-yl}(1,3-thiazolidin-3-yl)methanone]: the EC50 with HIV-1NL4-3 Wild Type was found to be 0.042 µM; with HIV-1NL4-3 K103N-Y181C, 0.087 µM; in the experiment on HIV-1LAI Wild Type, 0.991 µM.

As for `O=C1CN(C(=O)c2cc(-c3cc(Br)cc(OC(F)(F)F)c3)n(-c3cncc(Cl)c3)n2)CN1` [Example 42, 1-({5-[3-Bromo-5-(trifluoromethoxy)phenyl]-1-(5-chloropyridin-3-yl)-1H-pyrazol-3-yl}carbonyl)imidazolidin-4-one], the results for the EC50 in the experiment on HIV-1NL4-3 Wild Type, in the experiment on HIV-1NL4-3 K103N-Y181C and in the experiment with HIV-1LAI Wild Type were 0.018 µM, 0.028 µM and 0.247 µM, respectively.

As for `O=C1CN(C(=O)c2cc(-c3cc(Br)cc(OC(F)(F)F)c3)n(-c3cncc(Cl)c3)n2)CCN1` [Example 43, 4-({5-[3-Bromo-5-(trifluoromethoxy)phenyl]-1-(5-chloropyridin-3-yl)-1H-pyrazol-3-yl}carbonyl)piperazin-2-one], the EC50 with HIV-1NL4-3 Wild Type was 0.103 µM; in the experiment with HIV-1NL4-3 K103N-Y181C, 0.529 µM; with HIV-1LAI Wild Type, 0.751 µM.

As for `O=C1CN(C(=O)c2cc(-c3cc(Br)cc(OC(F)(F)F)c3)n(-c3cncc(F)c3)n2)CN1` [Example 44, 1-({5-[3-Bromo-5-(trifluoromethoxy)phenyl]-1-(5-fluoropyridin-3-yl)-1H-pyrazol-3-yl}carbonyl)imidazolidin-4-one], the EC50 came to 0.018 µM in the experiment with HIV-1NL4-3 Wild Type, 0.02 µM with HIV-1NL4-3 K103N-Y181C and 0.274 µM in the experiment with HIV-1LAI Wild Type.

On to `O=C1CN(C(=O)c2cc(-c3cc(Br)cc(OC(F)(F)F)c3)n(-c3cncc(F)c3)n2)CCN1` [Example 45, 4-({5-[3-Bromo-5-(trifluoromethoxy)phenyl]-1-(5-fluoropyridin-3-yl)-1H-pyrazol-3-yl}carbonyl)piperazin-2-one], for which the values for the EC50 in the experiment with HIV-1NL4-3 Wild Type, in the experiment on HIV-1NL4-3 K103N-Y181C and with HIV-1LAI Wild Type were 0.095 µM, 0.232 µM and 0.55 µM, respectively.

Regarding `Cc1ccc(-n2nc(C(=O)N3CNC(=O)C3)cc2-c2cc(Br)cc(OC(F)(F)F)c2)cn1` [Example 46, 1-({5-[3-Bromo-5-(trifluoromethoxy)phenyl]-1-(6-methylpyridin-3-yl)-1H-pyrazol-3-yl}carbonyl)imidazolidin-4-one], the values for the half-maximal effective concentration (EC50) in the experiment on HIV-1NL4-3 Wild Type, in the experiment on HIV-1NL4-3 K103N-Y181C and with HIV-1LAI Wild Type were 0.007 µM, 0.007 µM and 0.097 µM, respectively.

In the case of `O=C1CN(C(=O)c2cc(-c3cc(Br)cc(OC(F)(F)F)c3)n(-c3ccnc(Cl)c3)n2)CN1` [Example 48, 1-({5-[3-Bromo-5-(trifluoromethoxy)phenyl]-1-(2-chloropyridin-4-yl)-1H-pyrazol-3-yl}carbonyl)imidazolidin-4-one], the EC50 came out at 0.01 µM with HIV-1NL4-3 Wild Type, 0.007 µM in the experiment with HIV-1NL4-3 K103N-Y181C and 0.111 µM in the experiment on HIV-1LAI Wild Type.

On to `O=C1CN(C(=O)c2cc(-c3cc(Br)cc(OC(F)(F)F)c3)n(-c3ccnc(C(F)(F)F)c3)n2)CN1` [Example 50, 1-({5-[3-Bromo-5-(trifluoromethoxy)phenyl]-1-[2-(trifluoromethyl)pyridin-4-yl]-1H-pyrazol-3-yl}carbonyl)imidazolidin-4-one], for which the concentration for a half-maximal effect (EC50) was 0.102 µM with HIV-1NL4-3 Wild Type, 0.167 µM in the experiment on HIV-1NL4-3 K103N-Y181C and 1.86 µM with HIV-1LAI Wild Type.

Values taken from patent publication US9296720B2, “Carboxamide-substituted heteroaryl-pyrazoles and the use thereof” (AiCuris GmbH & Co. KG, priority 2011, dated 2016).
